# Data: patent US10770169B2, “Method of providing a treatment to a subject based on a dynamic pathway map” (THE REGENTS OF THE UNIVERSITY OF CALIFORNIA, priority 2010, dated 2020)
# Read-outs that look alike come from different tables or passages of the source.
# Columns and labels:
# [1] = tested on: breast cancer cell lines with aberrant vs normal copy number; experiment: Association of recurrent copy number changes and response (t-test on GI50); assay type: cell-based, human; details: FDR p<0.2
# Description: We used a t-test to assess the association between recurrent copy number changes (at 8q24 (MYC), 11q13 (CCND1), 20q13 (STK15/AURKA)) and drug sensitivity. We combined into a single group cell lines with low or no amplification and compared them to cell lines with high amplification. […] Cell lines for which the GI50 was equal to the maximum concentration tested were omitted from analysis. We omitted compounds where any group had fewer than five samples.
# [2] = tested on: panel of 55 breast cancer cell lines; experiment: Cell growth inhibition assay (Cell Titer Glo, 72 h, 9 doses; GI50, TGI, LC50); assay type: cell-based, human; details: Homo sapiens, read-out: GI50 (converted)
smiles,measurement,setting,value
CCC1=C[C@@H]2CN(C1)Cc1c([nH]c3ccccc13)[C@@](C(=O)OC)(c1cc3c(cc1OC)N(C)[C@H]1[C@@](O)(C(=O)OC)[C@H](OC(C)=O)[C@]4(CC)C=CCN5CC[C@]31[C@@H]54)C2 [Vinorelbine],association of response with homozygous deletion at 9p21 (CDKN2A),[1],associated with response
same,GI50,"[2]; 600MPE cell line, censored GI50 values",5130 nM
same,GI50,"[2]; AU565, AU565 cell line, censored GI50 values",8.71 nM
same,GI50,"[2]; AU565, cell line AU565",8.71 nM
same,GI50,"[2]; BT-474, BT474 cell line, censored GI50 values",47.9 nM
same,GI50,"[2]; BT-474, cell line BT474",47.9 nM
same,GI50,"[2]; BT-483, BT483 cell line, censored GI50 values",7.24 nM
same,GI50,"[2]; BT-483, cell line BT483",7.24 nM
same,GI50,"[2]; BT-549, BT549 cell line, censored GI50 values",9.55 nM
same,GI50,"[2]; BT-549, cell line BT549",9.55 nM
same,GI50,"[2]; CAMA-1, CAMA1 cell line, censored GI50 values",13.2 nM
same,GI50,"[2]; CAMA-1, cell line CAMA1",13.2 nM
same,GI50,"[2]; HCC38, HCC38 cell line, censored GI50 values",11.5 nM
same,GI50,"[2]; HCC38, cell line HCC38",11.5 nM
same,GI50,"[2]; HCC70, HCC70 cell line, censored GI50 values",7.41 nM
same,GI50,"[2]; HCC70, cell line HCC70",7.41 nM
same,GI50,"[2]; HCC202, HCC202 cell line, censored GI50 values",13.5 nM
same,GI50,"[2]; HCC202, cell line HCC202",13.5 nM
same,GI50,"[2]; HCC1143, HCC1143 cell line, censored GI50 values",263 nM
same,GI50,"[2]; HCC1143, cell line HCC1143",263 nM
same,GI50,"[2]; HCC1187, HCC1187 cell line, censored GI50 values",26.9 nM
same,GI50,"[2]; HCC1187, cell line HCC1187",26.9 nM
same,GI50,"[2]; HCC1395, HCC1395 cell line, censored GI50 values",3.55 nM
same,GI50,"[2]; HCC1395, cell line HCC1395",3.55 nM
same,GI50,"[2]; HCC1419, HCC1419 cell line, censored GI50 values",355 nM
same,GI50,"[2]; HCC1419, cell line HCC1419",355 nM
same,GI50,"[2]; HCC1428, HCC1428 cell line, censored GI50 values",2190 nM
same,GI50,"[2]; HCC1428, cell line HCC1428",2190 nM
same,GI50,"[2]; HCC1500, HCC1500 cell line, censored GI50 values",11 nM
same,GI50,"[2]; HCC1500, cell line HCC1500",11 nM
same,GI50,"[2]; HCC1806, HCC1806 cell line, censored GI50 values",11.7 nM
same,GI50,"[2]; HCC1806, cell line HCC1806",11.7 nM
same,GI50,"[2]; HCC1937, HCC1937 cell line, censored GI50 values",224 nM
same,GI50,"[2]; HCC1937, cell line HCC1937",224 nM
same,GI50,"[2]; HCC1954, HCC1954 cell line, censored GI50 values",3.55 nM
same,GI50,"[2]; HCC1954, cell line HCC1954",3.55 nM
same,GI50,"[2]; HCC2185 cell line, censored GI50 values",26300 nM
same,GI50,"[2]; HCC3153 cell line, censored GI50 values",51.3 nM
same,GI50,"[2]; LY2 cell line, censored GI50 values",13.2 nM
same,GI50,"[2]; MCF7, MCF7 cell line, censored GI50 values",16.6 nM
same,GI50,"[2]; MCF7, cell line MCF7",16.6 nM
same,GI50,"[2]; MDA-MB-134-VI, MDAMB134VI cell line, censored GI50 values",13.5 nM
same,GI50,"[2]; MDA-MB-157, MDAMB157 cell line, censored GI50 values",12.9 nM
same,GI50,"[2]; MDA-MB-157, cell line MDAMB157",12.9 nM
same,GI50,"[2]; MDA-MB-175-VII, MDAMB175VII cell line, censored GI50 values",38.9 nM
same,GI50,"[2]; MDA-MB-231, MDAMB231 cell line, censored GI50 values",5.13 nM
same,GI50,"[2]; MDA-MB-231, cell line MDAMB231",5.13 nM
same,GI50,"[2]; MDA-MB-361, MDAMB361 cell line, censored GI50 values",6.61 nM
same,GI50,"[2]; MDA-MB-361, cell line MDAMB361",6.61 nM
same,GI50,"[2]; MDA-MB-415, MDAMB415 cell line, censored GI50 values",18.2 nM
same,GI50,"[2]; MDA-MB-415, cell line MDAMB415",18.2 nM
same,GI50,"[2]; MDA-MB-436, MDAMB436 cell line, censored GI50 values",26.9 nM
same,GI50,"[2]; MDA-MB-436, cell line MDAMB436",26.9 nM
same,GI50,"[2]; MDA-MB-453, MDAMB453 cell line, censored GI50 values",3.8 nM
same,GI50,"[2]; MDA-MB-453, cell line MDAMB453",3.8 nM
same,GI50,"[2]; MDA-MB-468, MDAMB468 cell line, censored GI50 values",10.7 nM
same,GI50,"[2]; MDA-MB-468, cell line MDAMB468",10.7 nM
same,GI50,"[2]; SK-BR-3, SKBR3 cell line, censored GI50 values",17.4 nM
same,GI50,"[2]; SK-BR-3, cell line SKBR3",17.4 nM
same,GI50,"[2]; SUM52PE, SUM52PE cell line, censored GI50 values",5.37 nM
same,GI50,"[2]; SUM52PE, cell line SUM52PE",5.37 nM
same,GI50,"[2]; SUM149PT, SUM149PT cell line, censored GI50 values",12.3 nM
same,GI50,"[2]; SUM149PT, cell line SUM149PT",12.3 nM
same,GI50,"[2]; SUM185PE, SUM185PE cell line, censored GI50 values",8.32 nM
same,GI50,"[2]; SUM185PE, cell line SUM185PE",8.32 nM
same,GI50,"[2]; SUM1315MO2, SUM1315MO2 cell line, censored GI50 values",2.24 nM
same,GI50,"[2]; SUM-159-PT, SUM159PT cell line, censored GI50 values",12.3 nM
same,GI50,"[2]; SUM-159-PT, cell line SUM159PT",12.3 nM
same,GI50,"[2]; T47D, T47D cell line, censored GI50 values",4680 nM
same,GI50,"[2]; T47D, cell line T47D",4680 nM
same,GI50,"[2]; UACC-812, UACC812 cell line, censored GI50 values",74.1 nM
same,GI50,"[2]; UACC-812, cell line UACC812",74.1 nM
same,GI50,"[2]; UACC-893, UACC893 cell line, censored GI50 values",11 nM
same,GI50,"[2]; UACC-893, cell line UACC893",11 nM
same,GI50,"[2]; ZR-75-1, ZR751 cell line, censored GI50 values",44.7 nM
same,GI50,"[2]; ZR-75-1, cell line ZR751",44.7 nM
same,GI50,"[2]; ZR-75B, ZR75B cell line, censored GI50 values",8.91 nM
same,GI50,"[2]; ZR-75B, cell line ZR75B",8.91 nM
same,GI50,[2]; cell line 600MPE,5130 nM
same,GI50,[2]; cell line HCC2185,26300 nM
same,GI50,[2]; cell line HCC3153,51.3 nM
same,GI50,[2]; cell line LY2,13.2 nM
same,GI50,[2]; cell line MDAMB134V,13.5 nM
same,GI50,[2]; cell line MDAMB175V,38.9 nM
same,GI50,[2]; cell line SUM1315MO,2.24 nM
